According to US10633348B2, “Methods to treat lymphoplasmacytic lymphoma” (Dana-Farber Cancer Institute, Inc., priority 2013, dated 2020):
Where two headings read alike, the source gives them in different places.

Columns and labels:
Format in all cases: cell-based
TAK1 = system: TAK1
SRPK1 = system: SRPK1
eEF2K = system: eEF2K
PIP5K3 = system: PIP5K3
MST2 = system: MST2
GCN2 = system: GCN2
EPHB1 = system: EPHB1
MER, TYRO3 = experiment: KiNativ kinase profiling in A375 cells; conditions: Activation Loop, SEQ ID NO 102, 1.0 μM
IRAKI = system: IRAKI
PIP4K2B = system: PIP4K2B
ERK1 = system: ERK1
ITPK1 = system: ITPK1
Wnk1, Wnk2 = experiment: KiNativ kinase profiling in A375 cells; conditions: ATP Loop, SEQ ID NO 193, 1.0 μM
PCTAIRE1 = system: PCTAIRE1
MAP2K6 = system: MAP2K6
DNAPK = system: DNAPK
IKKb = system: IKKb
PEK = system: PEK
CAMK2G = system: CAMK2G
IRAK4 = system: IRAK4
OSR1 = system: OSR1
ULK3 = system: ULK3
LYN = system: LYN
CDK9 = system: CDK9
ZAK = system: ZAK
MAP2K5 = system: MAP2K5
Abl = experiment: KiNativ kinase profiling in A375 cells
FGR = system: FGR
CLK3 = system: CLK3
ZC2/TNIK = system: ZC2/TNIK
PRP4 = system: PRP4
MER = system: MER
JAK1 = system: JAK1
Ramos = experiment: CellTiter-Glo cell viability assay; conditions: Homo sapiens, 72 h
Method: (§1) CellTiter-Glo® Luminescent cell viability assay (Promega) was used to assess cell survival following treatment with the compounds described. Cells were seeded into 384 well plates with the EL406 Combination Washer Dispenser (BioTek Instruments, Inc.) and the compounds were injected into the cells culture media with the JANUS Automated Workstation (PerkinElmer Inc.). Cells were treated with a series diluted inhibitors (20˜0.04 μM) for 72 hours at 37° C. Luminescent measurement is performed using the 2104 Envision® Multilabel Reader (PerkinElmer Inc.).

MWCL-1 = experiment: CellTiter-Glo cell viability assay; conditions: 72 h
Method: as §1

OCI-Ly19 = experiment: CellTiter-Glo cell viability assay; conditions: Homo sapiens, OCI-LY19, 72 h
Method: as §1

BCWM.1 = experiment: CellTiter-Glo cell viability assay; conditions: BCWM1, 72 h
Method: as §1

FYN = experiment: KiNativ kinase profiling in A375 cells
RSK3 domain1 = system: RSK3 domain1
CDK2 = system: CDK2
ERK2 = system: ERK2
TAO1, TAO3 = experiment: KiNativ kinase profiling in A375 cells; conditions: Lys2, SEQ ID NO 182, 1.0 μM
ROCK1, ROCK2 = experiment: KiNativ kinase profiling in A375 cells; conditions: Lys2, SEQ ID NO 163, 1.0 μM
CAMK4 = system: CAMK4
CDK5 = system: CDK5
MAP3K2, MAP3K3 = experiment: KiNativ kinase profiling in A375 cells; conditions: Lys2, SEQ ID NO 87, 1.0 μM

Structure (SMILES): CCN1CCN(Cc2ccc(NC(=O)c3ccc(C)c(Oc4cc(N)ncn4)c3)cc2C(F)(F)F)CC1 [(A-4), 3-((6-aminopyrimidin-4-yl)oxy)-N-(4-((4-ethylpiperazin-1-yl)methyl)-3-(trifluoromethyl)phenyl)-4-methylbenzamide]
- inhibition of kinase labeling (TAK1): 32.0%
- inhibition of kinase labeling (SRPK1): −34.1%
- inhibition of kinase labeling (eEF2K): −30.5%
- inhibition of kinase labeling (PIP5K3): 0.9%
- inhibition of kinase labeling (MST2): −6.2%
- inhibition of kinase labeling (GCN2): 20.8%
- inhibition of kinase labeling (EPHB1): −1.7%
- inhibition of kinase labeling (MER, TYRO3): 1.6%
- inhibition of kinase labeling (IRAKI): −3.5%
- inhibition of kinase labeling (PIP4K2B): −44.7%
- inhibition of kinase labeling (ERK1): −9.0%
- inhibition of kinase labeling (ITPK1): 1.2%
- inhibition of kinase labeling (Wnk1, Wnk2): 24.2%
- inhibition of kinase labeling (PCTAIRE1): −3.5%
- inhibition of kinase labeling (MAP2K6): 0.5%
- inhibition of kinase labeling (DNAPK; ATP site peptide SEQ ID NO 37): −61.5%
- inhibition of kinase labeling (DNAPK; ATP site peptide SEQ ID NO 38): −64.6%
- inhibition of kinase labeling (IKKb): −12.6%
- inhibition of kinase labeling (PEK): 9.4%
- inhibition of kinase labeling (CAMK2G): −23.1%
- inhibition of kinase labeling (IRAK4): 1.9%
- inhibition of kinase labeling (OSR1): −11.1%
- inhibition of kinase labeling (ULK3): −4.4%
- inhibition of kinase labeling (LYN): 87.8%
- inhibition of kinase labeling (CDK9): −16.2%
- inhibition of kinase labeling (ZAK): 75.7%
- inhibition of kinase labeling (MAP2K5): 20.5%
- inhibition of kinase labeling (Abl; ABL, ARG, Activation Loop, SEQ ID NO 1, 1.0 μM, A375 cells): 95.5%
- inhibition of kinase labeling (FGR): 31.9%
- inhibition of kinase labeling (CLK3): −52.8%
- inhibition of kinase labeling (ZC2/TNIK): 23.9%
- inhibition of kinase labeling (PRP4): −20.1%
- inhibition of kinase labeling (MER): 49.8%
- inhibition of kinase labeling (JAK1): 4.3%
- EC50 (Ramos): 21100 nM
- EC50 (MWCL-1): 1150 nM
- EC50 (OCI-Ly19): 9430 nM
- EC50 (BCWM.1): 3010 nM
- inhibition of kinase labeling (FYN; FYN, SRC, YES, Activation Loop, SEQ ID NO 50, 1.0 μM, A375 cells): 71.2%
- inhibition of kinase labeling (RSK3 domain1): −32.6%
- inhibition of kinase labeling (CDK2): −3.5%
- inhibition of kinase labeling (ERK2): −3.8%
- inhibition of kinase labeling (TAO1, TAO3): 76.5%
- inhibition of kinase labeling (ROCK1, ROCK2): 22.0%
- inhibition of kinase labeling (CAMK4): 5.9%
- inhibition of kinase labeling (CDK5): −27.3%
- inhibition of kinase labeling (MAP3K2, MAP3K3): 3.2%

Structure (SMILES): CCN1CCN(Cc2ccc(NC(=O)c3ccc(C)c(Oc4ccnc(Nc5cnn(C)c5)n4)c3)cc2C(F)(F)F)CC1 [(A-14), N-(4-((4-ethylpiperazin-1-yl)methyl)-3-(trifluoromethyl)phenyl)-4-methyl-3-((2-((1-methyl-1H-pyrazol-4-yl)amino)pyrimidin-4-yl)oxy)benzamide]
- KiNativ inhibition (LYN): 85.7%
- LYN inhibition (LYN): 85.7%
- KiNativ inhibition (ZAK): 75.8%
- ZAK inhibition (ZAK): 75.8%
- Abl inhibition (Abl; 1 μM, A375 cells): > 90%
- KiNativ inhibition (Abl; ABL, ARG, Activation Loop, SEQ ID NO 200, 1.0 μM): 98.4%
- EC50 (Ramos): 2090 nM
- EC50 (MWCL-1): 128 nM
- EC50 (OCI-Ly19): 179 nM
- EC50 (BCWM.1): 33 nM
- FYN inhibition (FYN; 1 μM, A375 cells): 88.2%
- KiNativ inhibition (FYN; FYN, SRC, YES, Activation Loop, SEQ ID NO 255, 1.0 μM): 88.2%
